In patent US20160168118A1, “N-(5-QUINOLIN-6-YL)PYRIDIN-3-YL) BENZSULFAMIDE DERIVATIVES, PREPARATION METHOD AND THERAPEUTIC USE THEREOF” (SECOND MILITARY MEDICAL UNIVERSITY, PLA, priority 2012, published 2016):
≈ marks a conversion by molar mass, not a printed value.

Key:
[1] = target: PI3Kα (Homo sapiens, UniProt P42336); experiment: Kinase-Glo Luminescent Kinase Assay, PI3Kα; assay type: biochemical
[2] = target: PI3Kγ (Homo sapiens, UniProt P48736); experiment: ADP-Glo Luminescent Kinase Assay, PI3Kγ; assay type: biochemical; conditions: read-out: IC50 on PI3K gamma
[3] = target: PI3Kβ (Homo sapiens, UniProt P42338); experiment: ADP-Glo Luminescent Kinase Assay, PI3Kβ; assay type: biochemical; conditions: read-out: IC50 on PI3K beta
[4] = target: PI3K delta (Homo sapiens, UniProt O00329); experiment: Kinase-Glo Luminescent Kinase Assay, PI3K delta; assay type: biochemical
[5] = test system: HCT116 (human colon cancer cells); experiment: MTT assay, HCT116; assay type: cell-based; conditions: HCT-116, 72 h
[6] = test system: five human tumor cells; experiment: MTT assay, five human tumor cells (summary in words); assay type: cell-based; conditions: A549, HCT116, HepG2, ZR-75-30, U87MG
Experimental: 1. Sample preparation: After dissolved with DMSO (Merck), PBS (−) was added to make 1000 μg/ml solution or a uniform suspension, and then diluted with PBS (−) containing the DMSO. Doxorubicin (DOX) was used as the positive control drug.
2. Cell Line • 1) A549 (human lung cancer cells); 2) HCT116 (human colon cancer cells); 3) HepG2 (human hepatoma cells); 4) ZR-75-30 (human breast cancer cells); 5) U87MG (human brain star glioblastoma)
DMEM+5-10% FBS+double resistant
MTT assay. 100 μl cell suspension was added at a concentration of 4˜5×10^4 cells/ml to each well of a 96-well plate, and was set at 37° C., 5% CO2 in the incubator. After 24 h, the sample solution was added, 10 μl/hole, double wells were set, 37° C., acting for 72 h at 5% CO2. […] of 5 mg/ml was added to each well, the dissolving liquid was added after acted for 4 h, 100 μl/hole, kept in the incubator, and read 570 nm OD with MK-2 automatic microplate reader after dissolution.

[7] = test system: A549; experiment: NCI cytotoxicity test, A549; assay type: cell-based; conditions: Homo sapiens
Excerpt: (§1) Cytotoxicity Test of Compound 9, 10 and 17 on 60 Kinds of Human Cancer Cell Lines from the US National Cancer Institute

[8] = test system: COLO205; experiment: NCI cytotoxicity test, COLO205; assay type: cell-based; conditions: Homo sapiens, COLO 205
Excerpt: as §1

[9] = test system: SF539; experiment: NCI cytotoxicity test, SF539; assay type: cell-based; conditions: Homo sapiens, SF-539
Excerpt: as §1

[10] = test system: SN12C; experiment: NCI cytotoxicity test, SN12C; assay type: cell-based; conditions: Homo sapiens
Excerpt: as §1

[11] = test system: MCF7; experiment: NCI cytotoxicity test, MCF7; assay type: cell-based; conditions: Homo sapiens
Excerpt: as §1

[12] = test system: human lung carcinoma A549 xenografts; experiment: In vivo efficacy on human lung carcinoma A549 xenografts in nude mice; set-up: species or system BALB/C nude mice; conditions: ig, GSK2126458 3 mg/kg, compound 9 10 mg/kg
Excerpt: Strain: BALB/C nude mice (SPF grade), Source: Shanghai Slac laboratory animal limited liability company, the production license number: SCXK (Shanghai) 2007-0005, the using license number: SYXK (Shanghai) 2009-0068, gender: male, weight: 18-20 g, the number of animals per group: 6.
A549 solid tumors which were well-grown were taken, cut to uniform bits of about 3 mm size under aseptic condition, every bit was inoculated to each mouse subcutaneously in the right armpit with trocar, and randomly divided into three groups, each treatment was:
1) Control (saline), gavage, the dose 25 ml/kg, 14 days;
3) Compound 9, gavage, the dose 10 mg/kg, 14 days;
Regrouped according to tumor size on the 13th day after inoculation, the animals of which tumor size is too large and too small were eliminated, the average tumor volume of each group are basically the same. Administration was carried out according to the above regimen; the dosing volume was 0.5 ml/20 g body weight. The axis (a), shorter diameter (b) of tumor was measured 2 times a week with an electronic digital caliper, calculate formula of tumor volume (tumor volume, TV) is as follows: TV=1/2×a×b2, calculate formula of relative tumor volume (relative tumor volume, RTV), is as follows: RTV=Vt/Vo, wherein Vo is the tumor volume measured at the time when dividing cages (i.e. dl), Vt is the tumor volume measured each time. […] T test was conducted. Animals were sacrificed 30 days after inoculation, dissected and the tumor mass were taken, tumor weight was measured.

[13] = Solubility test in buffer solution at pH=1; assay type: physicochemical; conditions: pH=1 buffer solution, simulated gastric fluid, thermodynamic from solid; buffer solution pH=1
Experimental: Compound 9 1.02 mg was precisely weighed and placed in 1.5 mL of EP tube, and 10 uL pH=1 buffer solution was added, vortexed for 30S and ultrasonic for 20 min. There was a lot of visible turbidity after that.
20 uL buffer was added and ultrasounded and the solution was found still turbid. Turbidity reduced after the solution was diluted to 1 mL and vortexed, while there still exist residual after diluted to 2 mL.

PI3K delta, sequence (O00329 whole entry): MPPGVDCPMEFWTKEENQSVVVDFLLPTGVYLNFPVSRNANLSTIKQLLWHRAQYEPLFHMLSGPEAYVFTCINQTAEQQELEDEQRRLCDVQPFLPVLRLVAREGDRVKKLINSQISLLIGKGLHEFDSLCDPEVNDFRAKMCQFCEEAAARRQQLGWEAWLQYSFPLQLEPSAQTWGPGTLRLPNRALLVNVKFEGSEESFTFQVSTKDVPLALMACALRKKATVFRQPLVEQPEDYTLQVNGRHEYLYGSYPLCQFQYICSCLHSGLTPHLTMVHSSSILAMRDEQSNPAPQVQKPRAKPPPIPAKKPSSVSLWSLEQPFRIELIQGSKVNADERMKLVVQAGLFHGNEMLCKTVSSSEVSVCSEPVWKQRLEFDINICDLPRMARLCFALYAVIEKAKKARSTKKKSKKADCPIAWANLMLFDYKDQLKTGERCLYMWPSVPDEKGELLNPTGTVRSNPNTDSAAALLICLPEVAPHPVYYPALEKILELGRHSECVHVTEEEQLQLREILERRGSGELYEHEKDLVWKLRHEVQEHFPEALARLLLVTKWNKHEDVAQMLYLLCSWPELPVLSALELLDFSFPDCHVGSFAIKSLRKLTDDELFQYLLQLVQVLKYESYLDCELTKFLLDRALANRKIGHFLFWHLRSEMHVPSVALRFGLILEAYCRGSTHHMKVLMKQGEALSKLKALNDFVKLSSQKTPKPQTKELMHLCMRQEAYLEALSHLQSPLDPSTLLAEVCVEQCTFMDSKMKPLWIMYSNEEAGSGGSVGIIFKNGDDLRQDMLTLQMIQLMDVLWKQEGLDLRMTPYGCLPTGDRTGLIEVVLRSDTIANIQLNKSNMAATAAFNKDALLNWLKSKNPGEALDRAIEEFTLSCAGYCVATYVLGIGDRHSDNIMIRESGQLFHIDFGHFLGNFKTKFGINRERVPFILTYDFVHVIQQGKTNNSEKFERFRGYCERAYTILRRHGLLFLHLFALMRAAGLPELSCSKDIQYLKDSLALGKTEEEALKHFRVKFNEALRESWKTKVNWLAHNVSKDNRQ
PI3K delta, sequence (P27986 whole entry partner): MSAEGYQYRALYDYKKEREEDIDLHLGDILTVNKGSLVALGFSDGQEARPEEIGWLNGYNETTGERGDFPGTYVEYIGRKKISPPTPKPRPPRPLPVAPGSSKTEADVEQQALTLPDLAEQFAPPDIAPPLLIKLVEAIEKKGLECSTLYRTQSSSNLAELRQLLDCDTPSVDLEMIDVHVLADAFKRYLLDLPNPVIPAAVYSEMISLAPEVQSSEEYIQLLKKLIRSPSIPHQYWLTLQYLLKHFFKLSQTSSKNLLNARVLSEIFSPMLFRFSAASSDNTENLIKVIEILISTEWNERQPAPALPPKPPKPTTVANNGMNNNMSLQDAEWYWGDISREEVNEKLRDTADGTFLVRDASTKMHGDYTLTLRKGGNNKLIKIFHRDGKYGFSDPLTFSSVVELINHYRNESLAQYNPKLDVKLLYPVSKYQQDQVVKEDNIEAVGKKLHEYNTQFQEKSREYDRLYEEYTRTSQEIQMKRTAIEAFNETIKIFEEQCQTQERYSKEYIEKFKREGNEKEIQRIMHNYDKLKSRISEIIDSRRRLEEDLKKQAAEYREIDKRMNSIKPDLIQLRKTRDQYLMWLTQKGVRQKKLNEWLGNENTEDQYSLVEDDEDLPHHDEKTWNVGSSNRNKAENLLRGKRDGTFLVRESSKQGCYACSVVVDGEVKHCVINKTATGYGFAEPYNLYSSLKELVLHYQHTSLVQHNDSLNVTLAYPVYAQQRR
PI3Kβ, sequence (P42338 whole entry, species assumed): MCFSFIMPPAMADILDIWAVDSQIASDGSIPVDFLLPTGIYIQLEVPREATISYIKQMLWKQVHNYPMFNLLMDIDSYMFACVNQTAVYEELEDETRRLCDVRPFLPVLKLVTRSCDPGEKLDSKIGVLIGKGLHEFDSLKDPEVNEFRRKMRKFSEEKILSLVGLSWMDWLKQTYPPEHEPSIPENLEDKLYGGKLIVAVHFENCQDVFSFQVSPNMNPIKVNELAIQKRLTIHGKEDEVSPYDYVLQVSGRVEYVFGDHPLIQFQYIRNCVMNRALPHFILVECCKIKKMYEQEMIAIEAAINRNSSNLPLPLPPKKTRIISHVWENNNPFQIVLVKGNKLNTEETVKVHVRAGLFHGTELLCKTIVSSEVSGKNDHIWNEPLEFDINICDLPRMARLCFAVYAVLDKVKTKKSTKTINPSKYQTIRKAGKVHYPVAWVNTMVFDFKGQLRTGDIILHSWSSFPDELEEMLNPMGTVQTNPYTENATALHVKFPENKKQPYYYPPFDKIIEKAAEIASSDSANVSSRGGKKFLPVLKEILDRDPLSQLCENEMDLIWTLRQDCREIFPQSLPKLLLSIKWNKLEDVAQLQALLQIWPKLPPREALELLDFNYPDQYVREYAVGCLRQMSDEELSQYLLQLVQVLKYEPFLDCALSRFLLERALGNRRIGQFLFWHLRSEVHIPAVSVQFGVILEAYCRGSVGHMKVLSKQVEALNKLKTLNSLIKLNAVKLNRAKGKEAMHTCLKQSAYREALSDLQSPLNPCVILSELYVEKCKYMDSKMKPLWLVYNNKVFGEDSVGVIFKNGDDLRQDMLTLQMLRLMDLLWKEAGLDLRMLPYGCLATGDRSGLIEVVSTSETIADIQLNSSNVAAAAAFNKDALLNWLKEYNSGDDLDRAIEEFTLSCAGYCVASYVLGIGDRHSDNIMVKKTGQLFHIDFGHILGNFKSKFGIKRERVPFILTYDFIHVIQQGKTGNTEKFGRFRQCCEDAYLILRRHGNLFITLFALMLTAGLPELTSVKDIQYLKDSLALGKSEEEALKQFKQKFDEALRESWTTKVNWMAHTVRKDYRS
PI3Kβ, sequence (P27986 whole entry partner, species assumed): as the sequence (P27986 whole entry partner) above
PI3Kγ, sequence (P48736 whole entry, species assumed): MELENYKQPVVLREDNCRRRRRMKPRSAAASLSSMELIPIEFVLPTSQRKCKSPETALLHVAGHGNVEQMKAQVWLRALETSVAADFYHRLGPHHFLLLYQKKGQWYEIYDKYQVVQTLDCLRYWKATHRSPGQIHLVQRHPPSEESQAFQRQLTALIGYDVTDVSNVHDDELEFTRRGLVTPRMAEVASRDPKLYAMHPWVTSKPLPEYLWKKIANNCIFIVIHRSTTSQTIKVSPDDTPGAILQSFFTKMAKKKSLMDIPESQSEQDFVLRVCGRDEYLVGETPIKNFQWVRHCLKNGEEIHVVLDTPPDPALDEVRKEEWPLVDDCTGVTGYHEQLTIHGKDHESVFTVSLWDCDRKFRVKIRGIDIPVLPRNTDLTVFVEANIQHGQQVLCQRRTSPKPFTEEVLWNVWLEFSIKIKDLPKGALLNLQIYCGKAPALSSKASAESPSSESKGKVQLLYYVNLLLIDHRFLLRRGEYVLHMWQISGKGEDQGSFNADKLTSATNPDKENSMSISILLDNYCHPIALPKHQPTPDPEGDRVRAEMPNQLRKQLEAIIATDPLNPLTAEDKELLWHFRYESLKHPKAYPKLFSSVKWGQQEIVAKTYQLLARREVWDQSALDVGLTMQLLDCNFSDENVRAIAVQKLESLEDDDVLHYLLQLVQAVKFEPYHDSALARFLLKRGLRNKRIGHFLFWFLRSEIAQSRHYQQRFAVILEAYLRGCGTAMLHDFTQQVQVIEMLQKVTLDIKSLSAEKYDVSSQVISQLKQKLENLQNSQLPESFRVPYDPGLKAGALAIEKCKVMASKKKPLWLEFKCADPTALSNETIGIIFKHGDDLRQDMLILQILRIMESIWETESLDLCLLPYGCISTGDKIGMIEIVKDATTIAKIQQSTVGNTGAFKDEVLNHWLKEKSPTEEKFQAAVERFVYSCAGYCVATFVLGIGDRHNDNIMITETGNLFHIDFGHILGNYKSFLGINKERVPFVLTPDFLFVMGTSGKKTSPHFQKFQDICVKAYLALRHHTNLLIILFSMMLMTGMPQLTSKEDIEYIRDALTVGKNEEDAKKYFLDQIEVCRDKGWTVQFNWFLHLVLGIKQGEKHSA
PI3Kα, sequence (P42336 whole entry, species assumed): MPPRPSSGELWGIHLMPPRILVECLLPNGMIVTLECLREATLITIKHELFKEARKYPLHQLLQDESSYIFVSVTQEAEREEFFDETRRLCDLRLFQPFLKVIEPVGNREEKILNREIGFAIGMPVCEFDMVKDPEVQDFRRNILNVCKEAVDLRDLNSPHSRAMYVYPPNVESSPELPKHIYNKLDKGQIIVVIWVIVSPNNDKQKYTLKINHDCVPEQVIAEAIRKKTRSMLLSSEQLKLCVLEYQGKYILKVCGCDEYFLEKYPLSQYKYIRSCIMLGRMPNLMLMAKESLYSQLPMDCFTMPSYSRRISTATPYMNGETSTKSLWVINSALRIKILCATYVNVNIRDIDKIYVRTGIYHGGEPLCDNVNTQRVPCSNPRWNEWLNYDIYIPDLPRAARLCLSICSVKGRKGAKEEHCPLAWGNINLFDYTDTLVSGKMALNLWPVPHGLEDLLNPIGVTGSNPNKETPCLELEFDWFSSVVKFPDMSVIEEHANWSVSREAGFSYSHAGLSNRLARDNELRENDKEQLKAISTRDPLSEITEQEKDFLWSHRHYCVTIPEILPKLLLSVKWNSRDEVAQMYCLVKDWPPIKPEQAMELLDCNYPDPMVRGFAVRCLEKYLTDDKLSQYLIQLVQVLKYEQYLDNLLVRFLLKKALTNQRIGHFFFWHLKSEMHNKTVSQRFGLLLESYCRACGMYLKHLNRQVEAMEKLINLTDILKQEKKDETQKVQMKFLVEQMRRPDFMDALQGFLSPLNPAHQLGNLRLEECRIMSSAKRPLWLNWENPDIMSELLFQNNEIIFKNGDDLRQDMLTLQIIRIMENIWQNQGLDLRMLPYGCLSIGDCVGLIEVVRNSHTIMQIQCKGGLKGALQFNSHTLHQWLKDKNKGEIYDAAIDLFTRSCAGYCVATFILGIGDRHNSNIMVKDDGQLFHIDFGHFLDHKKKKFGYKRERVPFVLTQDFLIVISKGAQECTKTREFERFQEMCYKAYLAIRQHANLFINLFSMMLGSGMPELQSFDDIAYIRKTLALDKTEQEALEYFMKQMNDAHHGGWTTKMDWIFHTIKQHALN
PI3Kα, sequence (P27986 whole entry partner, species assumed): as the sequence (P27986 whole entry partner) above

- IC50 [1]: 1.3 nM
- IC50 [2]: 1.5 nM
- IC50 [3]: 1.8 nM
- IC50 [4]: 3.8 nM
- IC50 [5]: 1.69 ng/mL (≈ 3.01e-06 mM)
- Animal wight (g) (tumor removed) ([12]; at end): 23.28 ± 1.34 g
- solubility at 20 min [13]: 33.3 mg/mL (≈ 59.4 mM)
Compound: COc1ncc(-c2ccc3nccc(-c4ccc(CN(C)C)cc4)c3c2)cc1NS(=O)(=O)c1ccc(F)cc1F [Compound 9, N-(5-(4-(4-((dimethylamine)methyl)phenyl)quinolin-6-yl)-2-methoxypyridine-3-yl)-2,4-difluorobenzenesulfonamide]
- in vitro proliferation inhibition (in words) [6]: high in vitro proliferation inhibition
- GI50 [7]: < 10 nM
- GI50 [8]: 13.5 nM
- GI50 [9]: 17 nM
- GI50 [10]: < 10 nM
- GI50 [11]: < 10 nM
- RTV (d18) x ± SD ([12]; d18): 5.37 ± 1.86
